A short description of this series: solvent given as SMILES.

With `CC1(C)C(/C=C/C=C/C=C/C=C2/N(CCCCCC(=O)O)c3ccc(S(=O)(=O)[O-])cc3C2(C)C)=[N+](CCCCCC(=O)O)c2ccc(S(=O)(=O)[O-])cc21`, the absorption maximum came to 753 nm (in CO) and 748 nm (in O).

Turning to `Cc1ccc2c(c1)C1(c3ccccc3Oc3ccccc31)c1cc(C)ccc1N2c1ccc(-c2nc(-c3ccccc3)cc(-c3ccccc3)n2)cc1`, the absorption maximum (in Cc1ccccc1) was determined as 378 nm.

Turning to `COc1ccc2c(c1)c(C#N)cc1c(OC)c(OC)c3cc(C#N)c4cc(OC)ccc4c3c12`, where the note is “in ClC(Cl)Cl”, the absorption maximum is 471 nm.

For `CCN1c2ccc(/C=N/Nc3ccccn3)cc2Sc2cc(/C=N/Nc3ccccn3)ccc21`, the absorption maximum by setting is: (in C1CCOC1) 392 nm; (in CS(C)=O) 398 nm; (in Cc1ccccc1) 392 nm; (in ClCCl) 393 nm.

The molecule `CC1(C)c2ccccc2N(c2ccc(-c3ccc(C#N)c(C#N)n3)cc2)c2ccccc21` yielded an absorption maximum (in Cc1ccccc1) of 404 nm.

In the case of `COc1ccc(C#Cc2ccc(C#N)cc2)cc1`, the absorption maximum is, setting by setting: (in C1COCCO1) 330 nm; (in CC#N) 324 nm; (in CCCCCC) 331 nm; (in CCCCCCC) 332 nm; (in CCCO) 328 nm; (in CCOC(C)=O) 328 nm. Further, the absorption maximum came out at 329 nm (in CS(C)=O), 332 nm (in ClC(Cl)Cl) and 330 nm (in ClCCl).

In turn, `COC(=O)C(NC(=O)CCNc1cccc2ccccc12)c1ccccc1` (stereo not given) returned an absorption maximum (in CCO) of 330 nm.

`CCc1ccc2ccc(-c3ccccc3)nn12` returned an absorption maximum (in C1CCCCC1) of 405 nm.

Consider `C1=Cc2ccccc2C(=Cc2ccc(-c3ccc(C=C4c5ccccc5-c5ccccc54)cc3)cc2)c2ccccc21`, for which, where the note is “in C1CCOC1”, the absorption maximum came out at 357 nm.

Consider `CCCCCCc1cc2c3cscc3c3cc(CCCCCC)sc3c2s1`, for which the absorption maximum (in ClC(Cl)Cl) amounted to 393 nm.

Molecule `O=C(O)c1ccc(-c2nc(-c3ccccc3)c3c4ccccc4ccn23)cc1` came in with an absorption maximum (in CC#N) of 353 nm.

`COc1ccc2n1[B-](F)(F)[N+]1=C(SC#N)C=CC1=C2c1ccccc1`: the absorption maximum is listed as 474 nm (in CC#N); 517 nm (in CCCCCC); 506 nm (in CCOC(C)=O); 480 nm (in CO); 508 nm (in ClCCl).

Turning to `C(#Cc1nc2ccccc2s1)c1ccc(N(c2ccc(C#Cc3nc4ccccc4s3)cc2)c2ccc(C#Cc3nc4ccccc4s3)cc2)cc1`, the absorption maximum (in Cc1ccccc1) came out at 404 nm.

Turning to `Cc1cc(-c2ccccc2)nc2c1ccc1nc(-c3ccccc3)cn12`, the absorption maximum was found to be 347 nm (in CC#N); 350 nm (in CCCCOC(C)=O); 352 nm (in CCOC(C)=O); 345 nm (in CO); 350 nm (in ClC(Cl)Cl); 348 nm (in ClCCl). The molecule also displayed an absorption maximum (in c1ccccc1) of 351 nm.

As for `CC1(C)C(/C=C/C2=C(Cl)C(=C/C=C3/N(CCCS(=O)(=O)[O-])c4ccccc4C3(C)C)/CCC2)=[N+](CCCS(=O)(=O)[O-])c2ccccc21`, the absorption maximum (in CO) is 778 nm.

For the molecule `c1ccc(N(c2ccccc2)c2ccc(-c3ccc4c(c3)C3(c5cc(-c6ccc(N(c7ccccc7)c7ccccc7)cc6)ccc5S4)c4ccccc4-c4ccccc43)cc2)cc1`, the absorption maximum (in ClCCl) came to 356 nm.

`CCN(CC)c1ccc2cc(C#N)/c(=N\C(=O)c3ccco3)oc2c1`: the absorption maximum reads like this: (in CCO) 424 nm; (in ClCCl) 430 nm.

`CCN(CC)c1ccc2cc(/C=C/c3ccccc3)c(=O)oc2c1` had an absorption maximum (in CC#N) of 421 nm.

On to `CCCCCCCCCCOc1ccc2c3c(oc2c1)C1=C2C(=O)N4C=Cc5c(oc6cc(OCCCCCCCCCC)ccc56)C4=C2C(=O)N1C=C3`, for which the absorption maximum turned out to be 648 nm (in CN(C)C=O) and 648 nm (in ClC(Cl)Cl).

`Clc1ccc(/C=C/c2ccc(-c3nc4c5cccnc5c5ncccc5c4[nH]3)cc2)cc1`: the absorption maximum runs as follows: (in C1CCOC1) 376 nm; (in CC#N) 368 nm; (in CO) 360 nm; (in ClCCl) 377 nm.

As to `C/C=C/C=C/C1=NC(=C\c2ccc(O)cc2)/C(=O)N1C`, the absorption maximum runs as follows: (in ClC(Cl)Cl) 425 nm; (in O) 421 nm.

Consider `CN(C)c1ccc(-c2ccc(-c3nc(C#N)c(C#N)n3C)cc2)cc1`, for which the absorption maximum was 333 nm (in C1CCCCC1), 336 nm (in CC#N), 336 nm (in CO) and 348 nm (in ClC(Cl)Cl).

As to `CC(C)c1cccc(C(C)C)c1N1C(=O)c2cccc3c(Oc4ccccc4)ccc(c23)C1=O`, the absorption maximum (in ClCCl) is 364 nm.

In the case of `O=S(=O)([O-])c1ccc2c([O-])cc(S(=O)(=O)[O-])cc2c1`, the absorption maximum (in O) amounted to 350 nm.

Where the note is “in ClCCl”, `N#Cc1ccc(C#Cc2ncc(-c3ccccc3)o2)cc1` registered an absorption maximum of 345 nm.

`CCN(CC)c1cc2oc(=O)cc(C)c2cc1C`: under “in CCO”, the absorption maximum worked out at 442 nm.

Consider `CN1C(=CC2=C([O-])C(=Cc3sc4ccccc4[n+]3C)C2=C(C#N)C#N)C(C)(C)c2ccccc21`, for which the absorption maximum (in ClC(Cl)Cl) came to 691 nm.

As for `C(#Cc1cc2ccc3cc(C#Cc4ccccc4)cc4ccc(c1)c2c34)c1ccccc1`, the absorption maximum (in Cc1ccccc1) is 410 nm.

For `CCN(CC)c1cccc2c1ccc1c(=O)oc(-c3ccc(C(F)(F)F)cc3)cc12`, the absorption maximum is, setting by setting: (in CC(C)=O) 390 nm; (in CCCCCC) 388 nm; (in CCCCCCCCO) 393 nm; (in CCCCO) 392 nm; (in CCCO) 391 nm; (in CCO) 392 nm. The absorption maximum stood at 389 nm (in CCOC(C)=O), 394 nm (in CN(C)C=O) and 391 nm (in CO).

As to `C[n+]1ccn(CCCCc2ccc3c(c2)c2ccccc2n3-c2cc(C#N)c(C#N)cc2F)c1`, the absorption maximum (in CC#N) was found to be 350.79 nm.

As for `Oc1ccccc1-c1nc2c3ccccc3c3ccccc3c2o1`, the absorption maximum (in Cc1ccccc1) was determined as 364 nm.

Consider `COCCC1=Cc2nc1ccc1[nH]c(cc1CCOC)c1nc(c(OC(C)=O)cc3[nH]c2cc3CCOC)C(CCOC)=C1`, for which the absorption maximum (in Cc1ccccc1) is 647 nm.

`C(=C\c1ccc(/C=C/c2ccc(N(c3ccccc3)c3ccccc3)cc2)c2nsnc12)/c1ccc(N(c2ccccc2)c2ccccc2)cc1`: the absorption maximum is listed as 512 nm (in C1CCOC1); 502 nm (in CCOC(C)=O); 513 nm (in CN(C)C=O); 521 nm (in Cc1ccccc1); 514 nm (in ClC(Cl)Cl); 512 nm (in ClCCl).

Where the note is “in ClCCl”, `COc1ccc(-c2cnc(/C=C/c3ccccc3)o2)cc1OC` displayed an absorption maximum of 350 nm.

As for `COc1nc(Nc2ccc3ccc4cccc5ccc2c3c45)nc(OC)n1`, the absorption maximum is 340 nm (in CC#N), 341 nm (in CCCCOCCCC) and 340 nm (in CO).

For `F[B-]1(F)OC(c2ccc(C(F)(F)F)cc2)=Cc2ccc3ccccc3[n+]21`, the absorption maximum (in ClC(Cl)Cl) is 424 nm.

Consider `F[Si-](F)(c1ccccc1)(c1ccccc1)c1cc2ccccc2c2ccccc12`, for which the absorption maximum (in C1CCOC1) is listed as 303 nm.

Consider `CCCCCCn1c2ccccc2c2cc(/C=C/c3cc(=O)oc4cc(C)ccc34)ccc21`, for which the absorption maximum (in CS(C)=O) amounted to 405 nm and the absorption maximum (in ClC(Cl)Cl) came out at 393 nm.

For `CCC(CC)COC1=CC2=C3c4cc(OCC(CC)CC)c(-c5cccs5)n4[B-](F)(F)[n+]4c3n(c3cc(C(C)(C)C)ccc34)[B-](F)(F)[N+]2=C1c1cccs1`, the absorption maximum runs as follows: (in C1CCOC1) 792 nm; (in ClCCl) 791 nm.

As to `CCN(CC)c1ccc2cc(C#N)/c(=N\C(=O)C(C)C)oc2c1`, the absorption maximum runs as follows: (in CCO) 422 nm; (in ClCCl) 428 nm.

The molecule `O=Cc1ccc(/C=C/c2nc(N3CCOCC3)c3c([n+]2[O-])CCCC3)cc1` returned an absorption maximum (in ClCCl) of 418 nm.

For the molecule `COc1ccc2c(c1)[nH]c1c3[nH]c4cc(OC)ccc4c3c3nsnc3c21`, the absorption maximum runs as follows: (in CN(C)C=O) 436 nm; (in Cc1ccccc1) 425 nm; (in ClCCl) 430 nm.

`CC(C)(C)c1ccc2c(c1)c1cc(C(C)(C)C)ccc1n2-c1ccc(C#Cc2cccc(C#Cc3ccc(-n4c5ccc(C(C)(C)C)cc5c5cc(C(C)(C)C)ccc54)cc3)c2)cc1` had an absorption maximum (in CC#N) of 340 nm; an absorption maximum (in CCCCC) of 340 nm; an absorption maximum (in CO) of 338 nm; an absorption maximum (in Cc1ccccc1) of 345 nm; an absorption maximum (in ClC(Cl)Cl) of 344 nm; an absorption maximum (in ClCCl) of 345 nm.

For `CC(C)[Si]1(C(C)C)c2cc(C=O)ccc2-c2ccc(N(C)C)cc21`, the absorption maximum (in C1CCCCC1) was 390 nm; the absorption maximum (in CC#N) is 391 nm; the absorption maximum (in CCO) was found to be 395 nm; the absorption maximum (in CCOCC) worked out at 384 nm; the absorption maximum (in CS(C)=O) stood at 400 nm; the absorption maximum (in ClCCl) was found to be 397 nm. Under “in c1ccccc1”, this molecule showed an absorption maximum of 392 nm.

`c1ccc(-c2cc(-c3ccccc3)cc(-c3ccc4c(c3)C3(c5cc(-c6cc(-c7ccccc7)cc(-c7ccccc7)c6)ccc5-4)c4ccccc4-c4c3c3c5ccccc5ccc3c3ccccc43)c2)cc1` had an absorption maximum (in C1CCOC1) of 379 nm.

Turning to `N#Cc1nc2c(OCc3ccccc3)nc(N)nc2n1Cc1ccccc1`, the absorption maximum is, setting by setting: (in C1COCCO1) 313 nm; (in CC#N) 313 nm; (in CO) 318 nm; (in ClCCl) 311 nm.

For `CCCCCCc1cc(B(c2c(C)cc(C)cc2C)c2c(C)cc(C)cc2C)c(-c2sc(CCCCCC)cc2P(=O)(c2ccccc2)c2ccccc2)s1`, the absorption maximum (in CO) is 418 nm.

Molecule `COc1ccc2c3c([nH]c2c1)C(C)=NCC3` yielded an absorption maximum (in CC#N) of 328 nm, an absorption maximum (in CS(C)=O) of 330 nm and an absorption maximum (in O) of 372 nm.

These data come from the Deep4Chem optical property database.
